Measured values as given in patent US20240270736A1, “MACROCYCLIC HETEROCYCLES AND USES THEREOF” (Kumquat Biosciences Inc., priority 2022, published 2024).

What was measured:
Assay type in all cases: binding
[1] = biological target: T1, KRAS G12D (Homo sapiens, UniProt P01116, G12D); test: HTRF assay, interaction of KRAS G12D with SOS1; conditions: Ras::SOS1 interaction, read-out: Inhibition of KRAS G12D (IC50)
T1 construct: made in house; host or cells: E. coli, e.g. BL21 (DE3)
From the text: (§1) This assay can be also used to assess a selective inhibition or reduction of signaling output of a mutant Ras protein relative to a wildtype, or relative to a different mutant Ras protein. For example, the equilibrium interaction of wildtype Kras or K-Ras mutant (e.g., wildtype or a mutant thereof) with SOS1 (e.g., hSOS1) can be assessed as a proxy or an indication for a subject compound's ability to bind and inhibit Ras protein. The HTRF assay detects from (i) a fluorescence resonance energy transfer (FRET) donor (e.g., antiGST-Europium) that is bound to GST-tagged K-Ras mutant to (ii) a FRET acceptor (e.g., anti-6His-XL665) bound to a His-tagged hSOS1.
(§2) The assay buffer can contain ˜5 mM HEPES pH 7.4, ˜150 mM NaCl, ˜ 1 mM DTT, 0.05% BSA and 0.0025% (v/v) Igepal. A Ras working solution is prepared in an assay buffer containing typically a suitable amount of the protein construct (e.g., GST-tagged K-Ras mutant) and the FRET donor (e.g., antiGST-Eu(K) from Cisbio, France). A SOS1 working solution is prepared in an assay buffer containing suitable amount of the protein construct (e.g., His-hSOS1) and the FRET acceptor (e.g., anti-6His-XL665 from Cisbio, France). A suitable amount of the protein construct will depend on the range of activity or range of IC50 values being detected or under investigation. For detecting an IC50 within a range of 500 nM, the protein constructs of the same range of molarity can be utilized.
(§3) A fixed volume of DMSO with or without test compound is transferred into a 384-well plate. Ras working solution is added to all wells of the test plate. SOS1 working solution is added to all wells except for those that are subsequently filled with inhibitor control solution. Upon incubation for about 10 minutes or longer, the fluorescence is measured with a M1000Pro plate reader (Tecan) using HTRF detection (excitation 337 nm, emission 1: 620 nm, emission 2: 665 nm). Compounds are tested in duplicate at different concentrations (for example, 10 μM, 2.5 μM, 0.63 μM, 0.16 μM, 0.04 μM, 0.01 μM test compound). The ratiometric data (i.e., emission 2 divided by emission 1) is used to calculate IC50 values against Ras using GraphPad Prism (GraphPad software). Signaling output measured in terms of IC50 values can be obtained and a ratio of IC50 against one mutant relative to another mutant can be calculated. For instance, a selective reduction of K-Ras G12D signaling output can be evidenced by a ratio greater than one. In particular, a selective reduction of K-Ras G12D signaling relative to K-Ras WT signaling is evidenced if the ratio of IC50 (against K-Ras WT) to IC50 (against K-Ras G12D) is greater than 1.

[2] = biological target: T2, wildtype KRAS (Homo sapiens, UniProt P01116); test: HTRF assay, interaction of wildtype KRAS with SOS1; conditions: Ras::SOS1 interaction, read-out: Inhibition of KRAS WT (IC50)
T2 construct: made in house; host or cells: E. coli, e.g. BL21 (DE3)
T2 sequence (P01116 1-188 isoform P01116-2): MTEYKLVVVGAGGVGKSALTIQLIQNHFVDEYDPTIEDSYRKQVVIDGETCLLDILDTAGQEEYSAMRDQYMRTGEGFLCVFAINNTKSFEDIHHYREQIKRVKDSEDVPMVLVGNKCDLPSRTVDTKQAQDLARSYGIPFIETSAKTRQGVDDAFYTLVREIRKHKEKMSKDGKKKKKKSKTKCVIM
From the text: as §1, §2, §3

[3] = biological target: T3, KRAS G12V (Homo sapiens, UniProt P01116, G12V); test: HTRF assay, interaction of KRAS G12V with SOS1; conditions: Ras::SOS1 interaction, read-out: Inhibition of KRAS G12V (IC50)
T3 construct: made in house; host or cells: E. coli, e.g. BL21 (DE3)
T3 sequence (P01116 1-188 isoform P01116-2 G12V): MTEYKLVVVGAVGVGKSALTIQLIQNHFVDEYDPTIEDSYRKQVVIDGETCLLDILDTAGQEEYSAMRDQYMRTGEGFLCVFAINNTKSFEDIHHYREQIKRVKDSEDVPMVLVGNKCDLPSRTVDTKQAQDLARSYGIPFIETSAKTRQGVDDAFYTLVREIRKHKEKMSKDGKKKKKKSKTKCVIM
From the text: as §1, §2, §3

T1 sequence (P01116 1-188 isoform P01116-2 G12D): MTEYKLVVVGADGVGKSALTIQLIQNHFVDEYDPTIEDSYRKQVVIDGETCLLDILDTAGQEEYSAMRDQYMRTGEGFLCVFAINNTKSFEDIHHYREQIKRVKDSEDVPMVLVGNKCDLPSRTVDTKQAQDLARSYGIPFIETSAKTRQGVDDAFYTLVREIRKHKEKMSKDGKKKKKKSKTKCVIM

| Compound | IC50 [1] [µM] | IC50 [2] [µM] | IC50 [3] [µM] |
| --- | --- | --- | --- |
| CNCC1CCCCCN2CCOc3c(Cl)c(-c4ccc(F)c5sc(N)c(C#N)c45)c(F)c4nc(nc2c34)O1 (stereo not drawn) [Compound 133, 2-amino-4-(14-chloro-16-fluoro-4-((methylamino)methyl)-4,5,6,7,8,9,11,12-octahydro-2,17-(azeno)benzo[6,7][1,4]oxazepino[5,4-d][1]oxa[3,5]diazacycloundecin-15-yl)-7-fluorobenzo[b]thiophene-3-carbonitrile] | ≤ 5 | ≤ 5 | ≤ 5 |
| CN1CCCOc2nc3c4c(c(Cl)c(-c5ccc(F)c6sc(N)c(C#N)c56)c(F)c4n2)OCCN3CCC1 [Compound 143, 2-amino-4-(15-chloro-17-fluoro-7-methyl-5,6,7,8,9,10,12,13-octahydro-4H-2,18-(azeno)benzo[6,7][1,4]oxazepino[5,4-d][1]oxa[3,5,9]triazacyclododecin-16-yl)-7-fluorobenzo[b]thiophene-3-carbonitrile] | ≤ 5 | ≤ 5 | ≤ 5 |
| CN(C)CC1CNC(=O)CN2CCOc3c(Cl)c(-c4ccc(F)c5sc(N)c(C#N)c45)c(F)c4nc(nc2c34)OC1 (stereo not drawn) [Compound 145, 2-amino-4-(14-chloro-5-((dimethylamino)methyl)-16-fluoro-8-oxo-4,5,6,7,8,9,11,12-octahydro-2,17-(azeno)benzo[6,7][1,4]oxazepino[5,4-d][1]oxa[3,5,8]triazacycloundecin-15-yl)-7-fluorobenzo[b]thiophene-3-carbonitrile] | ≤ 5 | ≤ 5 | ≤ 5 |
| CN1CCCCCN2CCOc3c(Cl)c(-c4ccc(F)c5sc(N)c(C#N)c45)c(F)c4nc(nc2c34)OCC2(CC2)C1 [Compound 149, 2-amino-4-(17′-chloro-19′-fluoro-7′-methyl-7′,8′,9′,10′,11′,12′,14′,15′-octahydro-4′H,6′H-spiro[cyclopropane-1,5′-[2,20](azeno)benzo[6,7][1,4]oxazepino[5,4-d][1]oxa[3,5,11]triazacyclotetradecin]-18′-yl)-7-fluorobenzo[b]thiophene-3-carbonitrile] | ≤ 5 | ≤ 5 | ≤ 5 |
| CN1CCCCCCN2CCOc3c(Cl)c(-c4ccc(F)c5sc(N)c(C#N)c45)c(F)c4nc(nc2c34)OCCC1 [Compound 153, 2-amino-4-(18-chloro-20-fluoro-7-methyl-4,5,6,7,8,9,10,11,12,13,15,16-dodecahydro-2,21-(azeno)benzo[6,7][1,4]oxazepino[5,4-d][1]oxa[3,5,12]triazacyclopentadecin-19-yl)-7-fluorobenzo[b]thiophene-3-carbonitrile] | ≤ 5 | ≤ 5 | ≤ 5 |
| CN(C)CC1CCCCCN2c3nc(nc4c(F)c(-c5ccc(F)c6sc(N)c(C#N)c56)c(Cl)c(c34)OC[C@@H]2C(F)F)O1 (stereo partly drawn) [Compound 156, 2-amino-4-((11R)-14-chloro-11-(difluoromethyl)-4-((dimethylamino)methyl)-16-fluoro-4,5,6,7,8,9,11,12-octahydro-2,17-(azeno)benzo[6,7][1,4]oxazepino[5,4-d][1]oxa[3,5]diazacycloundecin-15-yl)-7-fluorobenzo[b]thiophene-3-carbonitrile] | ≤ 5 | ≤ 5 | ≤ 5 |

The next lines start with the values.

| IC50 [1] [µM] | IC50 [2] [µM] | IC50 [3] [µM] | Compound |
| --- | --- | --- | --- |
| ≤ 5 | ≤ 5 | ≤ 5 | CN1CCC[C@H]1C1CCCCCCN2CCOc3c(Cl)c(-c4ccc(F)c5sc(N)c(C#N)c45)c(F)c4nc(nc2c34)O1 (stereo partly drawn) [Compound 138, 2-amino-4-(15-chloro-17-fluoro-4-((S)-1-methylpyrrolidin-2-yl)-5,6,7,8,9,10,12,13-octahydro-4H-2,18-(azeno)benzo[6,7][1,4]oxazepino[5,4-d][1]oxa[3,5]diazacyclododecin-16-yl)-7-fluorobenzo[b]thiophene-3-carbonitrile] |
| ≤ 5 | ≤ 5 | ≤ 5 | CNCC1C/C=C\CCN2CCOc3c(Cl)c(-c4ccc(F)c5sc(N)c(C#N)c45)c(F)c4nc(nc2c34)O1 (stereo not drawn) [Compound 141, (Z)-2-amino-4-(14-chloro-16-fluoro-4-((methylamino)methyl)-4,5,8,9,11,12-hexahydro-2,17-(azeno)benzo[6,7][1,4]oxazepino[5,4-d][1]oxa[3,5]diazacycloundecin-15-yl)-7-fluorobenzo[b]thiophene-3-carbonitrile] |
| ≤ 5 | ≤ 5 | ≤ 5 | CNCC1CCCCCCN2CCOc3c(Cl)c(-c4ccc(F)c5sc(N)c(C#N)c45)c(F)c4nc(nc2c34)O1 (stereo not drawn) [Compound 157, 2-amino-4-(15-chloro-17-fluoro-4-((methylamino)methyl)-5,6,7,8,9,10,12,13-octahydro-4H-2,18-(azeno)benzo[6,7][1,4]oxazepino[5,4-d][1]oxa[3,5]diazacyclododecin-16-yl)-7-fluorobenzo[b]thiophene-3-carbonitrile] |
| ≤ 5 | ≤ 5 | ≤ 5 | CN(C)CC1CCNC(=O)CN2CCOc3c(Cl)c(-c4ccc(F)c5sc(N)c(C#N)c45)c(F)c4nc(nc2c34)O1 (stereo not drawn) [Compound 158, 2-amino-4-(14-chloro-4-((dimethylamino)methyl)-16-fluoro-8-oxo-4,5,6,7,8,9,11,12-octahydro-2,17-(azeno)benzo[6,7][1,4]oxazepino[5,4-d][1]oxa[3,5,8]triazacycloundecin-15-yl)-7-fluorobenzo[b]thiophene-3-carbonitrile] |
| ≤ 5 | ≤ 5 | ≤ 5 | CN1CCC[C@H]1[C@@H]1CC/C=C\CCN2CCOc3c(Cl)c(-c4ccc(F)c5sc(N)c(C#N)c45)c(F)c4nc(nc2c34)O1 [Compound 159, 2-amino-4-((4S,Z)-15-chloro-17-fluoro-4-((S)-1-methylpyrrolidin-2-yl)-5,6,9,10,12,13-hexahydro-4H-2,18-(azeno)benzo[6,7][1,4]oxazepino[5,4-d][1]oxa[3,5]diazacyclododecin-16-yl)-7-fluorobenzo[b]thiophene-3-carbonitrile] |
